EP4125996B1, “EZRIN PEPTIDE 1 FOR USE IN A METHOD OF TREATING COVID-19” (priority 2020, dated 2024)
Ends that are not written are not given here.

Assays:
SARS-CoV-2 = test: Case reports: subcutaneous Ezrin peptide 1 in patients with COVID-19; type: in vivo, humans
[1] = high dosages of 50 mg per kg body weight per day or higher; no test or source given; cited from earlier work
J-96 Human Cell Line = details: cell cultures; R. Ataullakhanov et al. 2005; cited from earlier work

TEKKRRETVEREKE [Ezrin peptide 1, NH2_Thr-Glu-Lys-Lys-Arg-Arg-Glu-Thr-Val-Glu-Arg-Glu-Lys-Glu_COOH]
Course of Disease (symptoms) (SARS-CoV-2; Example 1, patient, 0.2 mg s.c. daily, 15.03.2020, 2nd administration): increasing symptoms
Course of Disease (symptoms) (SARS-CoV-2; Example 1, 0.2 mg s.c. daily, 16.03.2020, 3rd administration): increasing symptoms with strong eye pain
Course of Disease (symptoms) (SARS-CoV-2; Example 1, 0.2 mg s.c. daily, 17.03.2020, 4th administration): increasing symptoms with more cough
Course of Disease (symptoms) (SARS-CoV-2; Example 1, 0.2 mg s.c. daily, 18.03.2020, 5th administration): significant signs of recovery, no eye pain, decreasing fever
Course of Disease (symptoms) (SARS-CoV-2; Example 1, 0.2 mg s.c. daily, 19.03.2020, 6th administration): significant signs of recovery, normal body temperature, no fatigue
Course of Disease (symptoms) (SARS-CoV-2; Example 1, 0.2 mg s.c. daily, 20.03.2020, 7th administration): return of taste, good general condition
Course of Disease (symptoms) (SARS-CoV-2; Example 1, 0.2 mg s.c. daily, 21.03.2020, 8th administration): no signs of illness anymore
course of the disease (duration) (SARS-CoV-2; Example 1, compared with the course expected for patients of this risk group): significantly shorter
severity of symptoms after administration (SARS-CoV-2; Example 1, compared with what is expected in a patient of this risk group): significantly lower
body temperature (SARS-CoV-2; Example 2, patient, 2 mg s.c. per dose, 25.04.2020 in the morning, second dose): 37.5 °C
body temperature (SARS-CoV-2; Example 2, 2 mg s.c., 25.04.2020 in the evening): 39.0 °C
Course of Disease (symptoms) (SARS-CoV-2; Example 2, 2 mg s.c., 25.04.2020, second dose): still general weakness, shortness of breath, cough, loss of appetite
body temperature (SARS-CoV-2; Example 2, 2 mg s.c., 26.04.2020 in the evening): 37.5 °C
Course of Disease (symptoms) (SARS-CoV-2; Example 2, 2 mg s.c., 26.04.2020, third administration): Still loss of appetite, slight cough
body temperature (SARS-CoV-2; Example 2, 2 mg s.c., 27.04.2020): 37.4 °C
Course of Disease (symptoms) (SARS-CoV-2; Example 2, 2 mg s.c., 27.04.2020, fourth dose): Slight cough, slight headache
body temperature (SARS-CoV-2; Example 2, 2 mg s.c., 28.04.2020): 37.3 °C
Course of Disease (symptoms) (SARS-CoV-2; Example 2, 2 mg s.c., 28.04.2020, fifth administration): Only slight pain of touching the scalp, still slight weakness
Course of Disease (symptoms) (SARS-CoV-2; Example 2, 2 mg s.c., 30.04.2020, sixth administration): Significant improvement of clinical symptoms, normal temperature
Course of Disease (symptoms) (SARS-CoV-2; Example 2, 01. to 04.05.2020, after six doses, antibiotic coverage due to increased CRP level): taste completely returned, no more cough, no more fever, clinical well-being
Course of Disease (symptoms) (SARS-CoV-2; Example 3, patient, 2 mg/d then 0.2 mg/d for four days s.c., 25.12.2020 (therapy begun 23.12.2020)): significant improvement of cough and general condition
Course of Disease (symptoms) (SARS-CoV-2; Example 3, after completion of HEP-1 therapy): No further symptoms
Course of Disease (symptoms) (SARS-CoV-2; Example 4, patient, 2 mg/d for two days then 0.2 mg/d for four days s.c., 25.12.2020 (therapy begun 23.12.2020)): significant improvement of cough and general condition
Course of Disease (symptoms) (SARS-CoV-2; Example 4, after completion of HEP-1 therapy): No further symptoms
Course of Disease (symptoms) (SARS-CoV-2; Example 5, patient, 2 mg/d for two days then 0,2 mg/d for four days s.c., 26.12.2020 (therapy begun 23.12.2020)): significant improvement of symptoms
Course of Disease (symptoms) (SARS-CoV-2; Example 5, after completion of the initial HEP-1 therapy): No further symptoms after completion of HEP-1 therapy until 13.01.2021, then severe shortness of breath
Course of Disease (shortness of breath) (SARS-CoV-2; Example 5, after subsequent 0,2 mg/d s.c. for fourteen days from 15.01.2021): No further shortness of breath
Course of Disease (symptoms) (SARS-CoV-2; Example 6, patient, 0.2 mg/d s.c. for ten days from 10.12.2020, 14.12.2020): significant improvement of symptoms
Course of Disease (symptoms) (SARS-CoV-2; Example 6, 0.2 mg/d s.c. for ten days, 20.12.2020): complete recovery of symptoms
toxicity [1]: not toxic
anti-viral effect (J-96 Human Cell Line): has shown an anti-viral effect
